Data on 20 molecules can be found in patent US9682925B2, “Cyclopropaneamine compound” (TAKEDA PHARMACEUTICAL COMPANY LIMITED, priority 2011, dated 2017).

Type in all cases: biochemical
One assay concerns the target T1, MAO-A (Homo sapiens, UniProt P21397).
T1 construct: purchased Sigma-Aldrich Co. LLC
T1 sequence (P21397 1-527): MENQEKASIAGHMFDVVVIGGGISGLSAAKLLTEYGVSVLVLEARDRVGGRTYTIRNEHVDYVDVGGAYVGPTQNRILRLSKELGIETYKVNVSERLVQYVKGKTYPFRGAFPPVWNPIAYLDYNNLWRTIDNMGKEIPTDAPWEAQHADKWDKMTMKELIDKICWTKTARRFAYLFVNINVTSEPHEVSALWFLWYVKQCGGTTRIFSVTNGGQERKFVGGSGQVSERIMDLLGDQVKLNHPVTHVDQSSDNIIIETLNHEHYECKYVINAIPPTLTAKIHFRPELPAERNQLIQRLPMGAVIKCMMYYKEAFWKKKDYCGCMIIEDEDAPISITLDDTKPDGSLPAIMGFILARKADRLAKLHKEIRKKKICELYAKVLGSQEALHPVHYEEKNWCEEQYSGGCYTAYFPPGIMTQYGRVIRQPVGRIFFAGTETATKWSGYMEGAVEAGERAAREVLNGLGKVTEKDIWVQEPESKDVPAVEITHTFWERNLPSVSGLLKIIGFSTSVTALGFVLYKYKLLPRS
The assay can be described thus: Measurement of MAO-A inhibitory activity (MAO-Glo Assay). The method, boiled down:
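MAO-A (400 ng) was pre-incubated with compound 10 min at room temperature in 100 mM HEPES pH 7.5, 5% glycerol, then MAO substrate (160 μM stock) added for 60 min. Luciferin detection reagent, 20 min, luminescence; % inhibition against no-compound control minus no-enzyme blank.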

Another assay has as its target T2, MAO-B (Homo sapiens, UniProt P27338).
T2 construct: purchased Sigma-Aldrich Co. LLC
T2 sequence (P27338 1-520): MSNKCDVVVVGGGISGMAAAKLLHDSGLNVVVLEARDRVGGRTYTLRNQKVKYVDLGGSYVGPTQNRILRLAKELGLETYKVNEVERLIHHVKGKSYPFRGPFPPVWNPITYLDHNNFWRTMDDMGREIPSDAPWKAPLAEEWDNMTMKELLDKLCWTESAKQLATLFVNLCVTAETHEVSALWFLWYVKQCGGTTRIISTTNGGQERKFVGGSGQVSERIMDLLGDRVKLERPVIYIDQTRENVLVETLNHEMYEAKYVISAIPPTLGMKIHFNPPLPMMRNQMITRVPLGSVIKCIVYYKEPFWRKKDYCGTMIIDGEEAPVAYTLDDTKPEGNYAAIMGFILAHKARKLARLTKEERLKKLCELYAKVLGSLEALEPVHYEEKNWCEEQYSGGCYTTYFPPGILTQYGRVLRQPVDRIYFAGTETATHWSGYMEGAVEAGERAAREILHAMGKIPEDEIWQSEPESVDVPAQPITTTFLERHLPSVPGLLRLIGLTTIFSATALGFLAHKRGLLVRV
The assay can be described thus: Measurement of MAO-B inhibitory activity (MAO-Glo Assay). Put shortly: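 Percent inhibition was calculated from luciferin-based luminescence, corrected with a blank lacking enzyme and a control lacking compound. The reaction ran 60 min at room temperature after adding MAO substrate (16 µM as added). This followed a 10 min compound–enzyme preincubation in HEPES pH 7.5 buffer.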

Another assay addresses T3, human LSD1(171-852) (Homo sapiens, UniProt O60341).
T3 construct: to give hLSD1(171-852) purified product; made in house; host or cells: Escherichia coli C43(DE3) pLysS
The assay can be described thus: Measurement of LSD1 inhibitory activity (time-resolved fluorescence, biotin-histone H3 mono methylated K4 peptide). The settings on record: read-out: LSD1 IC50 value.

Where a name gives a salt, the structure may show the parent alone.

What is called IC50 is the point on the concentration scale where inhibition reaches its midpoint. As for `O=C(Nc1ccc([C@@H]2C[C@H]2NCC2CC2)cc1)c1ccc(-c2cnco2)cc1` (relative stereo) [Example 95, N-(4-{trans-2-[(cyclopropylmethyl)-amino]cyclopropyl}-phenyl)-4-(1,3-oxazol-5-yl)benzamide], the IC50 against MAO-A is more than 10 µM; on MAO-B it was more than 10 µM; at human LSD1(171-852), less than 0.1 µM.
For `O=C(Nc1ccc([C@@H]2C[C@H]2NCC2CC2)cc1)c1ccc(-c2ccncc2)cc1` (relative stereo) [Example 96, N-(4-{trans-2-[(cyclopropylmethyl)-amino]cyclopropyl}-phenyl)-4-(pyridin-4-yl)benzamide], the IC50 against MAO-A was more than 10 µM; on MAO-B, more than 10 µM; at human LSD1(171-852), less than 0.1 µM.
Turning to `O=C(Nc1ccc([C@@H]2C[C@H]2NCC2CC2)cc1)c1ccc2nc(-c3ccsc3)[nH]c2c1` (relative stereo) [Example 97, N-(4-{trans-2-[(cyclopropylmethyl)-amino]cyclopropyl}-phenyl)-2-(3-thienyl)-1H-benzimidazole-6-carboxamide], the results for the IC50 against MAO-A, against MAO-B and on human LSD1(171-852) were more than 10 µM, more than 10 µM and less than 0.1 µM, respectively.
Consider `O=C(Nc1ccc([C@@H]2C[C@H]2NCC2CC2)cc1)c1ccc2nc(-c3ccco3)[nH]c2c1` (relative stereo) [Example 98, N-(4-{trans-2-[(cyclopropylmethyl)-amino]cyclopropyl}-phenyl)-2-(2-furyl)-1H-benzimidazole-6-carboxamide], for which the half-inhibitory concentration (IC50) is more than 10 µM against MAO-A, more than 10 µM against MAO-B and less than 0.1 µM on human LSD1(171-852).
With `O=C(Nc1ccc([C@@H]2C[C@H]2NCC2CC2)cc1)c1ccc2[nH]ncc2c1` (relative stereo) [Example 99, N-(4-{trans-2-[(cyclopropylmethyl)-amino]cyclopropyl}-phenyl)-1H-indazole-5-carboxamide], the IC50 against MAO-A was more than 10 µM; against MAO-B, more than 10 µM; at human LSD1(171-852), less than 0.1 µM.
In the case of `O=C(Nc1ccc([C@@H]2C[C@H]2NCC2CC2)cc1)c1cccc(-n2cnnn2)c1` (relative stereo) [Example 100, N-(4-{trans-2-[(cyclopropylmethyl)-amino]cyclopropyl}-phenyl)-3-(1H-tetrazol-1-yl)benzamide], the figures for the IC50 at MAO-A, on MAO-B and at human LSD1(171-852) were more than 10 µM, more than 10 µM and less than 0.1 µM, respectively.
On to `Cc1nc(-c2cccc(C(=O)Nc3ccc([C@@H]4C[C@H]4NCC4CC4)cc3)c2)cs1` (relative stereo) [Example 101, N-(4-{trans-2-[(cyclopropylmethyl)-amino]cyclopropyl}-phenyl)-3-(2-methyl-1,3-thiazol-4-yl)benzamide], for which the concentration for half-maximal inhibition (IC50) on MAO-A was more than 10 µM; against MAO-B, more than 10 µM; at human LSD1(171-852), less than 0.1 µM.
Consider `O=C(Nc1ccc([C@@H]2C[C@H]2NCC2CC2)cc1)c1ccc(-c2nnn[nH]2)cc1` (relative stereo) [Example 102, N-(4-{trans-2-[(cyclopropylmethyl)-amino]cyclopropyl}-phenyl)-4-(1H-tetrazol-5-yl)benzamide], for which the IC50 on MAO-A was more than 10 µM; against MAO-B, more than 10 µM; on human LSD1(171-852) it was 0.2 µM.
Take `O=C(Nc1ccc([C@@H]2C[C@H]2NCC2CC2)cc1)c1coc(-c2ccccc2)n1` (relative stereo) [Example 103, N-(4-{trans-2-[(cyclopropylmethyl)-amino]cyclopropyl}-phenyl)-2-phenyl-1,3-oxazole-4-carboxamide]: the IC50 on MAO-A was more than 10 µM; at MAO-B, more than 10 µM; at human LSD1(171-852), less than 0.1 µM.
Turning to `O=C(Nc1ccc([C@@H]2C[C@H]2NCC2CC2)cc1)c1cnc(-c2ccccc2)o1` (relative stereo) [Example 104, N-(4-{trans-2-[(cyclopropylmethyl)-amino]cyclopropyl}-phenyl)-2-phenyl-1,3-oxazole-5-carboxamide], the results for the IC50 at MAO-A, at MAO-B and at human LSD1(171-852) were more than 10 µM, more than 10 µM and less than 0.1 µM, respectively.
Consider `Cc1ccc(C(=O)Nc2ccc([C@@H]3C[C@H]3NCC3CC3)cc2)cc1C` (relative stereo) [Example 105, N-(4-{trans-2-[(cyclopropylmethyl)amino]cyclopropyl}phenyl)-3,4-dimethylbenzamide hydrochloride], for which the figures for the IC50 on MAO-A, at MAO-B and on human LSD1(171-852) were more than 10 µM, more than 10 µM and less than 0.1 µM, respectively.
Regarding `Cc1ccc(C)c(C(=O)Nc2ccc([C@@H]3C[C@H]3NCC3CC3)cc2)c1` (relative stereo) [Example 106, N-(4-{trans-2-[(cyclopropylmethyl)amino]cyclopropyl}phenyl)-2,5-dimethylbenzamide hydrochloride], the values for the IC50 against MAO-A, at MAO-B and on human LSD1(171-852) were more than 10 µM, more than 10 µM and less than 0.1 µM, respectively.
On to `O=C(Nc1ccc([C@@H]2C[C@H]2NCc2ccc3nccn3c2)cc1)c1cccc(C(F)(F)F)c1` (relative stereo) [Example 107, N-(4-{trans-2-[(imidazo[1,2-a]pyridin-6-ylmethyl)amino]cyclopropyl}phenyl)-3-(trifluoromethyl)benzamide dihydrochloride], for which the IC50 is 4.3 µM at MAO-A, more than 10 µM against MAO-B and less than 0.1 µM at human LSD1(171-852).
Regarding `O=C(Nc1ccc([C@@H]2C[C@H]2NCC2CC2)cc1)c1ccc(OC(F)(F)F)cc1` (relative stereo) [Example 108, N-(4-{trans-2-[(cyclopropylmethyl)amino]cyclopropyl}phenyl)-4-(trifluoromethoxy)benzamide hydrochloride], the IC50 on MAO-A is more than 10 µM; against MAO-B it was more than 10 µM; at human LSD1(171-852) it was less than 0.1 µM.
`O=C(Nc1ccc([C@@H]2C[C@H]2NCC2CC2)cc1)c1cccc(OC(F)(F)F)c1` (relative stereo) [Example 109, N-(4-{trans-2-[(cyclopropylmethyl)amino]cyclopropyl}phenyl)-3-(trifluoromethoxy)benzamide hydrochloride]: the IC50 against MAO-A was more than 10 µM; against MAO-B it was more than 10 µM; on human LSD1(171-852) it was less than 0.1 µM.
For `CN(C)c1ccc(CN[C@@H]2C[C@H]2c2ccc(NC(=O)c3cccc(C(F)(F)F)c3)cc2)cc1` (relative stereo) [Example 110, N-[4-(trans-2-{[4-(dimethylamino)benzyl]amino)cyclopropyl}phenyl]-3-(trifluoromethyl)benzamide dihydrochloride], the IC50 against MAO-A is more than 10 µM; against MAO-B, more than 10 µM; at human LSD1(171-852), less than 0.1 µM.
Turning to `O=C(Nc1ccc([C@@H]2C[C@H]2NC2CCN(C3CC3)CC2)cc1)c1cccc(C(F)(F)F)c1` (relative stereo) [Example 111, N-(4-{trans-2-[(1-cyclopropylpiperidin-4-yl)amino]cyclopropyl}phenyl)-3-(trifluoromethyl)benzamide dihydrochloride], the IC50 was more than 10 µM on MAO-A, more than 10 µM at MAO-B and less than 0.1 µM at human LSD1(171-852).
`CC(C)N1CCC(N[C@@H]2C[C@H]2c2ccc(NC(=O)c3cccc(C(F)(F)F)c3)cc2)CC1` (relative stereo) [Example 112, N-[4-(trans-2-{[1-(1-methylethyl)piperidin-4-yl]amino}cyclopropyl)phenyl]-3-(trifluoromethyl)benzamide dihydrochloride]: the 50% inhibitory concentration (IC50) was more than 10 µM on MAO-A, more than 10 µM against MAO-B and less than 0.1 µM on human LSD1(171-852).
In the case of `O=C(Nc1ccc([C@@H]2C[C@H]2NCC2CC2)cc1)c1ccc(-c2cc[nH]n2)cc1` (relative stereo) [Example 113, N-(4-{trans-2-[(cyclopropylmethyl)amino]cyclopropyl}phenyl)-4-(1H-pyrazol-3-yl)benzamide hydrochloride], the IC50 was 5.7 µM against MAO-A, more than 10 µM against MAO-B and less than 0.1 µM at human LSD1(171-852).
Turning to `O=C(Nc1ccc([C@@H]2C[C@H]2NCC2CC2)cc1)c1ccc2[nH]ccc2c1` (relative stereo) [Example 114, N-(4-{trans-2-[(cyclopropylmethyl)amino]cyclopropyl}phenyl)-1H-indole-5-carboxamide trifluoroacetate], the 50% inhibitory concentration (IC50) at MAO-A was more than 10 µM; on MAO-B it was more than 10 µM; on human LSD1(171-852), less than 0.1 µM.
